# Reference: patent US20070149446A1, “Tamandarin analogs and fragments thereof and methods of making and using” (The Trustees of the University of Pennsylvania Center for …, priority 2003, published 2007)
# Starred links: 1 amine or outer side, 2 acyl side, 3 side chain; linkers in the order of their positions; H or OH if unused. Positions of bridges follow the written chain, without caps; N, C: chain ends. Non-standard residues stand in square brackets, D forms with d. Residues, ends and D or L forms follow the SMILES beside them. Hexanoyl(3S-OH,4R-NH2,5-Me) = CC(C)[C@@H](N[*:1])[C@@H](O)CC(=O)[*:2]; NMeY = CN[C@@H](Cc1ccc(O)cc1)C(=O)O; dNMeL = CN[C@H](CC(C)C)C(=O)O; Hiv = CC(C)[C@H](O)C(=O)O; Lac = C[C@H](O)C(=O)O
# Columns and labels:
# [1] = test system: A549; assay: SRB colorimetric cell growth inhibition assay, A549; details: SRB, 48 hours exposure
# Method: (§1) This form of assay employs 96 well cell culture microplates of […] diameter (Faircloth, 1988; Mosmann, 1983). Most of the cell lines are obtained from American Type Culture Collection (ATCC) derived from different human cancer types.
# (§2) Cells are maintained in RPMI 1640 10% FBS, supplemented with 0.1 g/l penicillin and 0.1 g/l streptomycin sulfate and then incubated at 37° C., 5% CO2 and 98% humidity. For the experiments, cells were harvested from subconfluent cultures using trypsin and resuspended in fresh medium before plating.
# (§3) Cells are seeded in 96 well microtiter plates, at 5×10^3 cells per well in aliquots of 195 μl medium, and they are allowed to attach to the plate surface by growing in drug free medium for 18 hours. Afterward, samples are added in aliquots of 5 μl in a ranging from 10 to 10-8 μg/ml, dissolved in DMSO/EtOH/PBS (0.5:0.5:99). After 48 hours exposure, the antitumor effect are measured by the SRB methodology: cells are fixed by adding 50 μl of cold 50% (wt/vol) trichloroacetic acid (TCA) and incubated for 60 minutes at 4° C.
# (§4) Plates are washed with deionised water and dried. One hundred μl of SRB solution (0.4% wt/vol in 1% acetic acid) is added to each microtiter well and incubated for 10 minutes at room temperature. Unbound SRB is removed by washing with 1% acetic acid. Plates are air dried and bound stain is solubilized with Tris buffer. Optical densities are read on a automated spectrophotometric plate reader at a single wavelength of 490 nm.
# (§5) The values for mean+/−SD of data from triplicate wells are calculated.
# (§6) Some parameters for cellular responses can be calculated: GI=growth inhibition, TGI=total growth inhibition (cytostatic effect) and LC=cell killing (cytotoxic effect).
# [2] = test system: HELA-APL; assay: SRB colorimetric cell growth inhibition assay, HELA-APL; details: SRB, 48 hours exposure
# Method: as §1, §2, §3, §4, §5, §6
# [3] = test system: IGROV-ET; assay: SRB colorimetric cell growth inhibition assay, IGROV-ET; details: SRB, 48 hours exposure
# Method: as §1, §2, §3, §4, §5, §6
# [4] = test system: LOVO; assay: SRB colorimetric cell growth inhibition assay, LOVO; details: SRB, 48 hours exposure
# Method: as §1, §2, §3, §4, §5, §6
# [5] = test system: PANC1; assay: SRB colorimetric cell growth inhibition assay, PANC1; details: SRB, 48 hours exposure
# Method: as §1, §2, §3, §4, §5, §6
# [6] = test system: HT29; assay: SRB colorimetric cell growth inhibition assay, HT29; details: SRB, 48 hours exposure
# Method: as §1, §2, §3, §4, §5, §6
# [7] = test system: SK-MEL-28; assay: SRB colorimetric cell growth inhibition assay, SK-MEL-28; details: SRB, 48 hours exposure
# Method: as §1, §2, §3, §4, §5, §6
# [8] = test system: IGROV; assay: SRB colorimetric cell growth inhibition assay, IGROV; details: SRB, 48 hours exposure
# Method: as §1, §2, §3, §4, §5, §6
# [9] = test system: HELA; assay: SRB colorimetric cell growth inhibition assay, HELA; details: SRB, 48 hours exposure
# Method: as §1, §2, §3, §4, §5, §6
# [10] = test system: K562; assay: SRB colorimetric cell growth inhibition assay, K562; details: K562 cells, SRB, 48 hours exposure
# Method: as §1, §2, §3, §4, §5, §6
# [11] = test system: SK-BR3; assay: SRB colorimetric cell growth inhibition assay, SK-BR3; details: SRB, 48 hours exposure
# Method: as §1, §2, §3, §4, §5, §6
# [12] = test system: LOVO-DOX; assay: SRB colorimetric cell growth inhibition assay, LOVO-DOX; details: SRB, 48 hours exposure
# Method: as §1, §2, §3, §4, §5, §6
# [13] = test system: LN-caP; assay: SRB colorimetric cell growth inhibition assay, LN-caP; details: SRB, 48 hours exposure
# Method: as §1, §2, §3, §4, §5, §6
# [14] = test system: DU145; assay: SRB colorimetric cell growth inhibition assay, DU145; details: SRB, 48 hours exposure
# Method: as §1, §2, §3, §4, §5, §6
structure (smiles),measurement,setting,value
"COc1ccc(C[C@H]2C(=O)O[C@H](C)[C@H](NC(=O)[C@@H](CC(C)C)N(C)C(=O)[C@@H]3CCCN3C(=O)[C@H](C)O)C(=O)N[C@H](C(C)C)[C@@H](O)CC(=O)O[C@@H](C(C)C)C(=O)N[C@@H](CC(C)C)C(=O)N3CCC[C@H]3C(=O)N2C)cc1 [tamandarin B, Tamandarin B, reference compound] (H-[Lac]P[dNMeL]T[Hexanoyl(3S-OH,4R-NH2,5-Me)][Hiv]LP[NMeY](Me); ester 4-C)",TGI,"[1]; A549 cells, total growth inhibition",4.01E−08 Molar
same,GI50,[1]; A549 lung carcinoma cells,0.00762 µM
same,CC50,"[1]; read-out: LC50, A549 cells, cell killing",0.766 µM
same,GI50,[2]; HELA-APL (aplidine resistant) cervix cells,0.0597 µM
same,TGI,"[2]; HELA-APL cells, total growth inhibition",1.16E−06 Molar
same,CC50,"[2]; read-out: LC50, HELA-APL cells, cell killing",9.59 µM
same,GI50,[3]; IGROV-ET (ET-743 resistant) ovary cells,0.173 µM
same,TGI,"[3]; IGROV-ET cells, total growth inhibition",2.04E−06 Molar
same,CC50,"[3]; read-out: LC50, IGROV-ET cells, cell killing",9.59 µM
same,TGI,"[4]; LOVO cells, total growth inhibition",1.61E−07 Molar
same,GI50,[4]; LOVO colon adenocarcinoma cells,0.0305 µM
same,CC50,"[4]; read-out: LC50, LOVO cells, cell killing",9.59 µM
same,TGI,"[5]; PANC1 cells, total growth inhibition",5.69E−08 Molar
same,GI50,[5]; PANC1 pancreatic carcinoma cells,0.014 µM
same,CC50,"[5]; read-out: LC50, PANC1 cells, cell killing",0.413 µM
same,TGI,"[6]; HT29 cells, total growth inhibition",4.32E−08 Molar
same,GI50,[6]; HT29 colon adenocarcinoma cells,0.00632 µM
same,CC50,"[6]; read-out: LC50, HT29 cells, cell killing",9.59 µM
same,GI50,[7]; SK-MEL-28 (MEL-28) melanoma cells,0.00303 µM
same,TGI,"[7]; SK-MEL-28 cells, total growth inhibition",1.19E−08 Molar
same,CC50,"[7]; read-out: LC50, SK-MEL-28 cells, cell killing",0.119 µM
same,TGI,"[8]; IGROV cells, total growth inhibition",2.91E−08 Molar
same,GI50,[8]; IGROV ovary adenocarcinoma cells,0.00731 µM
same,CC50,"[8]; read-out: LC50, IGROV cells, cell killing",0.133 µM
same,TGI,"[9]; HELA cells, total growth inhibition",1.76E−08 Molar
same,GI50,[9]; HELA cervix carcinoma cells,0.0039 µM
same,CC50,"[9]; read-out: LC50, HELA cells, cell killing",0.12 µM
same,GI50,[10],0.00847 µM
same,TGI,[10]; total growth inhibition,2.63E−08 Molar
same,CC50,"[10]; read-out: LC50, cell killing",0.0782 µM
same,GI50,[11]; SK-BR3 breast adenocarcinoma cells,0.00544 µM
same,TGI,"[11]; SK-BR3 cells, total growth inhibition",2.49E−08 Molar
same,CC50,"[11]; read-out: LC50, SK-BR3 cells, cell killing",0.236 µM
same,GI50,[12]; LOVO-DOX (MDR) colon adenocarcinoma cells,1.25 µM
same,TGI,"[12]; LOVO-DOX cells, total growth inhibition",9.59E−06 Molar
same,CC50,"[12]; read-out: LC50, LOVO-DOX cells, cell killing",9.59 µM
same,TGI,"[13]; LN-caP cells, total growth inhibition",2.13E−08 Molar
same,GI50,[13]; LN-caP prostate adenocarcinoma cells,0.00584 µM
same,CC50,"[13]; read-out: LC50, LN-caP cells, cell killing",0.142 µM
same,TGI,"[14]; DU145 cells, total growth inhibition",2.41E−08 Molar
same,GI50,[14]; DU145 prostate carcinoma cells,0.00708 µM
same,CC50,"[14]; read-out: LC50, DU145 cells, cell killing",0.0797 µM
